# In patent publication US10883143B2, “Compositions and methods for enhancing odorant receptor activity” (DUKE UNIVERSITY, priority 2009, dated 2021):
# “Also recorded” adds a separate entry of the source.
# What was measured:
# [1] = target: T1, OR-S6 coexpressed with M3 (Mus musculus, UniProt Q9ERZ3); assay: CRE-luciferase reporter assay of OR activation in HEK293T cells; format: cell-based
# T1 construct: The open reading frames were amplified using Phusion polymerase; expressed in transfected cells; host or cells: HEK293T
# Experimental: (§1) Given that GPCRs that form heteromeric interactions often show functional co-modulation, experiments were conducted to determine if altering M3 activity directly affects the odor-mediated activation of ORs. […] HEK293T cells Hana3A cells were maintained in minimal essential medium (MEM) containing 10% fetal bovine serum (M10) and penicillin-streptomycin and amphotericin solution. Lipofectamine 2000 (Invitrogen) was used for transfection following manufacturer's protocols. […] Briefly, cAMP response element (CRE)-luciferase (Stratagene) was used to measure OR activation. […] Cells were plated on poly-D-lysine-coated 96-well plates (NUNC) 2 days prior to assay. Cells were transfected with ORs in either Hana3A or HEK293T cell lines along with various combinations of RTP1S, Ric-8b, M3, CRE-luciferase, and pRL-SV40. 18-24 hours after transfection, cells were rinsed with 50 μl of CD293 (Invitrogen) and stimulated with 25 μl of odorant solution dissolved in CD293. Cells were incubated for 4 hours at 37° C. and 5% CO2 before luciferase assays. Protocols for measuring luciferase and Renilla luciferase activities were as described by the manufacturer (Promega). Normalized luciferase activity was calculated with the formula (LN−Lmin)/(Lmax−Lmin), where LN is the luminescence of firefly luciferase in response to the odorant, Lmin is the minimum luciferase value on a plate or set of plates, and Lmax is the maximum luciferase value on a plate or set of plates. The data was analyzed with Microsoft Excel and GraphPad Prism 5. Odorants and muscarinic agonists and antagonists were from Sigma except for darifenacin, which was purchased from Santa Cruz.
# [2] = test system: OR-S6, RTP1S and M3 coexpressed; assay: Alphascreen cAMP assay in HEK293T cells; format: cell-based, mouse
# Experimental: When OR, RTP1S, and M3 were coexpressed, the background level was slightly higher than other conditions.
# Alphascreen cAMP assay (Perkin Elmer) was used to measure changes of cAMP. Cells were plated on 96-cell plate (poly D lysine coated, NUNC). 24 hours after transfection, cells were washed in Hanks containing 5 mM HEPES, 0.1% BSA and 500 uM IBMX for 30 minutes. The cells were then stimulated with Hanks containing 5 mM HEPES, 0.1% BSA and 500 uM IBMX and corresponding chemicals. The stimulated cells were incubated for 10 min at room temperature before lysis. The manufacture's protocol was used to measure cAMP.
# [3] = test system: olfactory sensory neurons (OSNs); assay: Calcium imaging of acutely dissociated OSNs stimulated with a mix of 10 odorants; format: cell-based, mouse; settings: paired T-test
# [4] = test system: OR-S6 coexpressed with M3; assay: CRE-luciferase reporter assay of OR activation in HEK293T cells; format: cell-based, mouse; settings: HEK293T coexpressing OR-S6, RTP1S and M3 vs. without M3
# Experimental: as §1
# OR-S6 = assay: Calcium imaging with HEK293T cells expressing OR-S6 without M3; format: cell-based, mouse
# Experimental: (§2) Since M3 potentiates OR signaling, the possibility that OR activation may also enhance M3 signaling was considered.
# Calcium imaging with HEK293T cells was performed as described (see, e.g., Y. Ishimaru et al., Proc Natl Acad Sci USA 103, 12569 (Aug. 15, 2006); herein incorporated by reference in its entirety).
# M3 = target: T2, M3 (Mus musculus, UniProt Q9ERZ3); assay: Calcium imaging with HEK293T cells expressing M3; format: cell-based; settings: carbachol 10^−7M
# T2 construct: The open reading frames were amplified using Phusion polymerase; expressed in transfected cells; host or cells: HEK293T
# Description: as §2
# [5] = test system: OR-S6 coexpressed with M3; assay: Calcium imaging with HEK293T cells coexpressing OR-S6 and M3; format: cell-based, mouse; settings: for calcium response to odor alone: OR-S6 and its cofactors (mRTP) coexpressed with M3, 10^−4M nonanedioic acid
# Description: as §2
# T2 sequence (Q9ERZ3 whole entry): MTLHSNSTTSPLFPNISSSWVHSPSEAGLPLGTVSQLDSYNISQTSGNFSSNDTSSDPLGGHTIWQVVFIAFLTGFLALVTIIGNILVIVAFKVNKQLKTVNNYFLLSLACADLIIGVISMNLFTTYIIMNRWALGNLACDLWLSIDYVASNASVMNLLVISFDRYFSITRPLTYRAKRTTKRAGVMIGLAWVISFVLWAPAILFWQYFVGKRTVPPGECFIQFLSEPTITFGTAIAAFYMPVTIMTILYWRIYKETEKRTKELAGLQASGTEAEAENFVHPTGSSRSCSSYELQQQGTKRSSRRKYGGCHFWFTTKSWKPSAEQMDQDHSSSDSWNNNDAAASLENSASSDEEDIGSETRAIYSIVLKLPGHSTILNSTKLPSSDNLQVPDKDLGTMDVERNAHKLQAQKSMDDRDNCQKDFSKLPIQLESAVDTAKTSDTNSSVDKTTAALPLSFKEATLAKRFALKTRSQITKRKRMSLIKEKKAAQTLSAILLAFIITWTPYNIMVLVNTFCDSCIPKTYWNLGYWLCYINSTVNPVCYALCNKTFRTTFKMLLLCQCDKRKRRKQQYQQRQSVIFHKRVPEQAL
# T1 sequence (Q9ERZ3 whole entry): as above
smiles,measurement,setting,value
CN1[C@@H]2CC[C@H]1C[C@@H](OC(=O)C(CO)c1ccccc1)C2 (stereo partly drawn) [atropine],OR-S6 activation by nonanedioic acid on co-stimulation with muscarinic ligand,[1],hindered the potentiation effect of M3
C[N+](C)(C)CCOC(N)=O [carbachol],"rise in cAMP following OR stimulation, costimulation with carbachol","[2]; carbachol 10^−7M, HEK293T transfected with OR-S6, RTP1S and M3",even more dramatic; also recorded: further stimulates production of cAMP
NC(=O)C(c1ccccc1)(c1ccccc1)[C@@H]1CCN(CCc2ccc3c(c2)CCO3)C1 [darifenacin],"odor-mediated calcium responses of OSNs (Fluo-4/Fura-red ratio, Anet)",[3]; 10^−7M antagonist with mix of 10 odorants each at 10^−5M,significantly attenuated
same,"odor-mediated calcium responses of OSNs (Fluo-4/Fura-red ratio, Anet)","[3]; 10^−7M antagonist with mix of 10 odorants each at 10^−5M, listed as darifenecin",attenuated odor-mediated responses of OSNs
C[C@H](CCC(=O)O)C[C@H](C)C[C@H](C)C(=O)/C=C(\O)[C@H](C)C[C@H](C)C/C=C/[C@@H](C)[C@@H](O)[C@@H](C)[C@@H](O)C[C@@H]1CC[C@@](C)([C@H]2CC[C@@](C)([C@@H](C)O)O2)O1 [ionomycin],CRE-luciferase reporter response without OR ligands,[4],reporter gene responses were not seen
same,CRE-luciferase reporter response without OR ligands,[4]; listed as Ionomycin,had no effect on OR activation
O=C(O)CCCCCCCC(=O)O [nonanedioic acid],calcium response,OR-S6; HEK293T cells expressing OR-S6 alone,No calcium response was observed
same,calcium response,OR-S6; cells coexpressing OR and Gα15olf (positive control),generate a calcium response
same,calcium response,"OR-S6; cells coexpressing OR and Gα15olf (positive control), listed as nonandioic acid",increase cellular calcium
same,calcium response,M3,No response was observed
same,cellular cAMP levels following stimulation with OR-S6 ligand,"[2]; cells coexpressing OR-S6, RTP1S and M3 vs. without M3",dramatic increase in cellular cAMP levels
same,calcium response to odor alone,[5],strong calcium response
same,calcium response to odor alone,[5]; listed as nonandioic acid,calcium level increases
same,calcium response,[5]; cells expressing both S6 and M3 in the absence of RTP,does not elicit a calcium response
O[Si](CCCN1CCCCC1)(c1ccc(F)cc1)C1CCCCC1 (stereo not drawn) [pfHHSiD],"odor-mediated calcium responses of OSNs (Fluo-4/Fura-red ratio, Anet)",[3]; 10^−6M antagonist with mix of 10 odorants each at 10^−5M,Equivalent results; also recorded: attenuated odor-mediated responses of OSNs
